These are literature values, as cited in patent US20260000626A1, “POLYMERIC NANOPARTICLES FOR LONG ACTING DELIVERY OF A PEPTIDE AND METHODS OF MAKING AND USING THEREOF” (Brown University, priority 2022, published 2026).

In data set [1] the target is T1, GLP-1 receptor (Homo sapiens, UniProt P43220). To be noted: negligible agonistic activity.
Data set [2] addresses T1, GLP-1 receptor. To be noted: vs intact GLP-1.

T1 sequence (P43220 24-463, species assumed): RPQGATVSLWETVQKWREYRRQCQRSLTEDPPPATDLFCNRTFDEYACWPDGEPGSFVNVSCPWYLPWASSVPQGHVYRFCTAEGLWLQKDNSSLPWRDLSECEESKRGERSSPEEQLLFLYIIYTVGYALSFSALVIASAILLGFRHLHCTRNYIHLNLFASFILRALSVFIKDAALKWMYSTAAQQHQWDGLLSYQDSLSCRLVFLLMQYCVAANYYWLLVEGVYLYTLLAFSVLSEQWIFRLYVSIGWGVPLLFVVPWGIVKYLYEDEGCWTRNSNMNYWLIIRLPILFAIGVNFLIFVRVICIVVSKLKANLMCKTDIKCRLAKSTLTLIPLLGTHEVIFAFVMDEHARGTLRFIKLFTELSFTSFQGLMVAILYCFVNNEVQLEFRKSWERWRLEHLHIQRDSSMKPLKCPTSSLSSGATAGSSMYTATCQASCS

In the case of GLP-1(9-36)-NH2, in data set [1], the “decrease in agonistic activity” value was greater than 10000 fold. In data set [2], the “lower binding affinity compared to the intact peptide” value is listed as 100 fold.
